Key:
[1] = test system: human TLR7 mutant (dIRR2); assay: TLR7 mutant (deletion in second leucine-rich repeat) NFκB-luc cellular reporter assay; format: cell-based; parameters: unit not given here; conditions: HEK293 NFκB-luc reporter, mutant TLR7, 6 hours incubation
Procedure: (§1) The ability of compounds to activate human TLR7 and/or TLR8 was assessed in a cellular reporter assay using HEK293 cells transiently transfected with a TLR7 or TLR8 expression vector and NFκB-luc reporter construct. In one instance the TLR expression construct expresses the respective wild type sequence or a mutant sequence comprising a deletion in the second leucine-rich repeat of the TLR.
(§2) Briefly, HEK293 cells were grown in culture medium (DMEM supplemented with 10% FCS and 2 mM Glutamine). For transfection of cells in 10 cm dishes, cells were detached with Trypsin-EDTA, transfected with a mix of CMV-TLR7 or TLR8 plasmid (750 ng), NFκB-luc plasmid (375 ng) and a transfection reagent and incubated 24 hours at 37° C. in a humidified 5% CO2 atmosphere. Transfected cells were then detached with Trypsin-EDTA, washed in PBS and resuspended in medium to a density of 1.67×10^5 cells/mL. Thirty microliters of cells were then dispensed into each well in 384-well plates, where 10 μL of compound in 4% DMSO was already present. Following 6 hours incubation at 37° C., 5% CO2, the luciferase activity was determined by adding 15 μl of Steady Lite Plus substrate (Perkin Elmer) to each well and readout performed on a ViewLux ultraHTS microplate imager (Perkin Elmer). Dose response curves were generated from measurements performed in quadruplicates. Lowest effective concentrations (LEC) values, defined as the concentration that induces an effect which is at least two fold above the standard deviation of the assay, were determined for each compound.

[2] = target: T1, human TLR8 (Homo sapiens, UniProt Q9NR97); assay: TLR8 wild type NFκB-luc cellular reporter assay; format: cell-based; parameters: unit not given here; conditions: HEK293 NFκB-luc reporter, 6 hours incubation
T1 construct: expressed in transfected cells; host or cells: HEK293
T1 sequence (Q9NR97 27-1041): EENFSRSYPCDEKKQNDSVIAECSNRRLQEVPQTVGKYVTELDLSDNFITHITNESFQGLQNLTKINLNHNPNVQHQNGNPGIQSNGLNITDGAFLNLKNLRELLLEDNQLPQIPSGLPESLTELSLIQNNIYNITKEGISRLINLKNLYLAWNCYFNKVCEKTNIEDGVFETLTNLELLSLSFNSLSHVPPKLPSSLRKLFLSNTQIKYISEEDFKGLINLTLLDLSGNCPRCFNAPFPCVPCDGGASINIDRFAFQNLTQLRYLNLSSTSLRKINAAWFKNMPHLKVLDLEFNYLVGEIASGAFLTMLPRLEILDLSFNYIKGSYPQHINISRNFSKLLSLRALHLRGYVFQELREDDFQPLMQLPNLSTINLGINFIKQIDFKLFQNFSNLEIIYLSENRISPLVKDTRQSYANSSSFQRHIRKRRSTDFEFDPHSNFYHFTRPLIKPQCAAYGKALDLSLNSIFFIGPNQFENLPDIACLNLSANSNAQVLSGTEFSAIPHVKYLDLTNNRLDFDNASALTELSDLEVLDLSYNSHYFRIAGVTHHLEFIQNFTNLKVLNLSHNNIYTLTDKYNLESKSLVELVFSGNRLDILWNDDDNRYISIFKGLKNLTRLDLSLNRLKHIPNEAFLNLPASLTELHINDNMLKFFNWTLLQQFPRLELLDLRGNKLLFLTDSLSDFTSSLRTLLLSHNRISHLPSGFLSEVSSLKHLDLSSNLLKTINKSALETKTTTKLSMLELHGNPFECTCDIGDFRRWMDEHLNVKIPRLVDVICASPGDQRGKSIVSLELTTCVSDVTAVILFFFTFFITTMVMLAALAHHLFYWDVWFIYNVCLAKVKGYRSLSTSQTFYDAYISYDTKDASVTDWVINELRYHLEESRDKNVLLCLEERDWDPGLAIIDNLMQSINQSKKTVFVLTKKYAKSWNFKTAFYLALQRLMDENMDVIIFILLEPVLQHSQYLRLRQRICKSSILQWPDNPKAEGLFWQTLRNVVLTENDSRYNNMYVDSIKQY
Method in brief: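 HEK293 cells transiently transfected with wild-type or second-LRR-deletion (dIRR2) TLR7/TLR8 plasmid plus NFκB-luc, 24 h; compound added for 6 h at 37 °C. Luciferase read-out, quadruplicate dose responses. LEC = lowest concentration giving effect at least two-fold above assay SD.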

[3] = test system: human TLR8 mutant (dIRR2); assay: TLR8 mutant (deletion in second leucine-rich repeat) NFκB-luc cellular reporter assay; format: cell-based; parameters: unit not given here; conditions: HEK293 NFκB-luc reporter, mutant TLR8, 6 hours incubation
Procedure: as §1, §2

[4] = test system: HCV replicon (Huh-7 luc/neo cells); assay: Suppression of HCV replicon replication by conditioned media from PBMC; format: cell-based, HCV type 1b; conditions: Hepatitis C virus, compound concentration applied to PBMCs giving 50% reduction of replicon luciferase activity, read-out: PBMC-HUH7_EC50
Procedure: Activation of human TLR7 results in robust production of interferon by plasmacytoid dendritic cells present in human blood. The potential of compounds to induce interferon was evaluated by looking at the antiviral activity in the HCV replicon system upon incubation with conditioned media from peripheral blood mononuclear cells (PBMC). The HCV replicon assay is based on a bicistronic expression construct, as described by Lohmann et al. (Science (1999) 285: 110-113; Journal of Virology (2003) 77: 3007-15 3019) with modifications described by Krieger et al. (Journal of Virology (2001) 75: 4614-4624). The assay utilized the stably transfected cell line Huh-7 luc/neo harboring an RNA encoding a bicistronic expression construct comprising the wild type NS3-NS5B regions of HCV type 1b translated from an Internal Ribosome Entry Site (IRES) from encephalomyocarditis virus (EMCV), preceded by a reporter gene (Firefly-luciferase) and a selectable marker gene (neoR, neomycine phosphotransferase). The construct is flanked by 5′ and 3′ NTRs (non-translated regions) from HCV type 1b. Continued culture of the replicon cells in the presence of G418 (neoR) is dependent on the replication of the HCV RNA. The stably transfected replicon cells that replicate HCV RNA autonomously and to high levels, encoding inter alia luciferase, were used for profiling of the conditioned cell culture media.
Briefly, PBMCs were prepared from buffy coats of at least two donors using a standard Ficoll centrifugation protocol. Isolated PBMCs were resuspended in RPMI medium supplemented with 10% human AB serum and 2×10^5 cells/well were dispensed into 384-well plates containing compounds (70 μL total volume). After overnight incubation, 10 μL of supernatant was transferred to 384-well plates containing 2.2×10^3 replicon cells/well in 30 μL (plated the day before). Following 24 hours of incubation, replication was measured by assaying luciferase activity using 40 μL/well Steady Lite Plus substrate (Perkin Elmer) and measured with ViewLux ultraHTS microplate imager (Perkin Elmer). The inhibitory activity of each compound on the Huh7-luc/neo cells were reported as EC50 values, defined as the compound concentration applied to the PBMCs resulting in a 50% reduction of luciferase activity which in turn indicates the degree of replication of the replicon RNA on transfer of a defined amount of PBMC culture medium. Recombinant interferon α-2a (Roferon-A) was used as a standard control compound.

Row | SMILES | TLR7-dIRR2_LEC [1] | TLR8-wt_LEC [2] | TLR8-dIRR2_LEC [3] | EC50 [4] [µM]
1 | CCCCNc1nc(N)nc2cc(OC)c(OC)cc12 [Compound 1] | 0.4 | 1.1 | 0.6 | 1.9
2 | CCCC[C@@H](CCO)Nc1nc(N)nc2cc(OC)c(OC)cc12 [Compound 3] | 0.9 | 5.5 | 2.4 | 0.6

Reference: US8916575B2, “Quinazoline derivatives for the treatment of viral infections and further diseases” (Janssen R&D Ireland, priority 2011, dated 2014)
